{"source": "patent US11197908B2", "about": "“Peptoids and methods for attenuating inflammatory response” (THE BOARD OF TRUSTEES OF THE UNIVERSITY OF ARKANSAS, priority 2018, dated 2021)", "key": {"[1]": {"tested_on": "IL-6", "experiment": "IL-6 in supernatant of THP-1 macrophages co-incubated with peptoid and LPS (ELISA)", "format": "cell-based, human", "conditions": "peptoid 50 μM with 2 ng/mL LPS, 3 days; vs LPS alone", "method": "(§1) THP-1 monocytes were differentiated into macrophages through exposure to phorbol 12-myristate 13-acetate (PMA) for three days prior to experimentation 10. […] Upon differentiation, these cells were then incubated (3 days) with media containing JPT1a (50, 10, or 2 μM) alone or JPT1a (50, 10, or 2 μM) in the presence of low-dose (2 ng/mL) lipopolysaccharide (LPS) as a chronic pro-inflammatory stimulus 11. Treatment with 2 ng/mL LPS alone served as a positive control, while treatment with an equivalent volume of buffer diluted into media served as the vehicle. Cellular supernatant was harvested on day 3 12; these samples were immediately centrifuged at 1200 rpm for 10 min at 25° C. to remove any cells or debris. The top 80% of this volume was subsequently removed and stored at −80° C. for later assessment of cytokines via ELISA. Cells were fixed and stained for RAGE, phalloidin (cytoplasmic marker), and DAPI (nuclear marker) 13. […] All multi-channel images were converted to TIFF file format via ImageJ64 software for quantitative image analysis using a custom subroutine written in Matlab™ software to obtain the average RAGE expression per volume of cells, and the data generated was assessed for statistical significance using GraphPad Prism 7.0 software 15.\n(§2) As shown in FIGS. 2B-2D, THP-1 macrophages were treated with JPT1a alone (white) or in the presence of a chronic low-dose (2 ng/mL) of LPS (grey), for 3 days prior to supernatant harvest and storage. Examination of the supernatant via ELISA determined the concentrations of (FIG. 2B) IL-1β, (FIG. 2C) IL-6, and (FIG. 2D) IL-8. […]\nas §2, with “5B-5D,” for “2B-2D,”, “JPT1” for “JPT1a”, “5B)” for “2B)”, “5C)” for “2C)”, “5D)” for “2D)”"}, "[2]": {"tested_on": "RAGE", "experiment": "RAGE upregulation in THP-1 macrophages co-incubated with peptoid and low-dose LPS (confocal imaging)", "format": "cell-based, human", "conditions": "3 days", "method": "THP-1 monocytes were differentiated into macrophages through exposure to phorbol 12-myristate 13-acetate (PMA) for three days prior to experimentation 10. […] Upon differentiation, these cells were then incubated (3 days) with media containing JPT1a (50, 10, or 2 μM) alone or JPT1a (50, 10, or 2 μM) in the presence of low-dose (2 ng/mL) lipopolysaccharide (LPS) as a chronic pro-inflammatory stimulus 11. Treatment with 2 ng/mL LPS alone served as a positive control, while treatment with an equivalent volume of buffer diluted into media served as the vehicle. Cellular supernatant was harvested on day 3 12; these samples were immediately centrifuged at 1200 rpm for 10 min at 25° C. to remove any cells or debris. The top 80% of this volume was subsequently removed and stored at −80° C. for later assessment of cytokines via ELISA. Cells were fixed and stained for RAGE, phalloidin (cytoplasmic marker), and DAPI (nuclear marker) 13. Each channel was imaged with a Zeiss LSM 510 META Confocal Scanning Laser Microscope using a plan-neofluar 40×/1.3 oil DIC immersion objective; three of these multi-channel images were obtained from each slide in each experiment 14. All multi-channel images were converted to TIFF file format via ImageJ64 software for quantitative image analysis using a custom subroutine written in Matlab™ software to obtain the average RAGE expression per volume of cells, and the data generated was assessed for statistical significance using GraphPad Prism 7.0 software 15.\n(§3) Images acquired via confocal microscopy were analyzed via custom MATLAB™ subroutine to determine the average quantity of RAGE present within a given volume of cells. Results within each experiment are normalized to the positive control (2 ng/mL LPS alone), indicated by the dashed line at 1. Significance relative to positive control is indicated as ** p<0.01. Error bars indicate SEM, n=4.\nas §3, with “1.0.” for “1. Significance relative to positive control is indicated as ** p<0.01.”, “n=2.” for “n=4.”"}, "[3]": {"tested_on": "IL-1β", "experiment": "IL-1β in supernatant of THP-1 macrophages co-incubated with peptoid and LPS (ELISA)", "format": "cell-based, human", "conditions": "peptoid 50 μM with 2 ng/mL LPS, 3 days; vs LPS alone", "method": "as §1, with “debris.” for “debris. The top 80% of this volume was subsequently removed and stored at −80° C. for later assessment of cytokines via ELISA. Cells were fixed and stained for RAGE, phalloidin (cytoplasmic marker), and DAPI (nuclear marker) 13.”\nas §2"}, "[4]": {"target": "RAGE (Homo sapiens, UniProt Q15109)", "sequence (Q15109 23-404)": "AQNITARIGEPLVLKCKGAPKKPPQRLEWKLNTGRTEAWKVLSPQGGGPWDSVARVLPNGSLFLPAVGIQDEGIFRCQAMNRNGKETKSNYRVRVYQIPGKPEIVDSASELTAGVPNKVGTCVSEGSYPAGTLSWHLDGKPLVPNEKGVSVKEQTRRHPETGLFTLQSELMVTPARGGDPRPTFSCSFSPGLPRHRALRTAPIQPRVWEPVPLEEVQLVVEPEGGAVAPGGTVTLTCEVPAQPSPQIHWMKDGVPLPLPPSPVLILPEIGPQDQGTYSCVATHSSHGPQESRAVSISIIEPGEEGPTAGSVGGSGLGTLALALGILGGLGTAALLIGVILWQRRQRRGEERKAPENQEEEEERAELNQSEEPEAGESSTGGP", "experiment": "RAGE binding to peptoid-coated 96-well plates, Scatchard plot", "conditions": "plates coated with 500 nM peptoid; JPT1a n=3 average, JPT1 n=1", "method": "As shown in FIGS. 7A-7D, 96-well plates coated with 500 nM JPT1a were treated with concentrations of RAGE (FIG. 7A) or E-cadherin (FIG. 7B) ranging from 1 to 500 nM. Values are reported as the average concentration of bound protein determined from all experiments. Error bars indicate SEM, n=2-5. […] In FIG. 7D, 96-well plates coated with 500 nM JPT1 were treated with concentrations of RAGE ranging from 1 to 350 nM."}}, "note": "Where a SMILES comes first, the peptide text is derived from it. [ ]: non-standard residue; d: D form. Nphe = O=C(O)CNCc1ccccc1; NPrGly = CCCNCC(=O)O; Nlys = NCCCCNCC(=O)O", "data": [{"smiles": "CCCN(CC(=O)N(CCC)CC(=O)N(CC(=O)N(CC(=O)N(CCC)CC(=O)N(CC(=O)N(CC(N)=O)Cc1ccccc1)Cc1ccccc1)Cc1ccccc1)Cc1ccccc1)C(=O)CNCCCCN", "note": "[JPT1] (H-[Nlys][NPrGly][NPrGly][Nphe][Nphe][NPrGly][Nphe][Nphe]-NH2)", "values": [{"measurement": "LPS-induced production of IL-6", "setting": "[1]", "result": "significantly attenuates"}, {"measurement": "upregulation in RAGE expression in the presence of LPS", "setting": "[2]; peptoid 50, 10 or 2 μM with 2 ng/mL LPS, normalized to LPS alone", "result": "reduced in a dose-dependent manner"}, {"measurement": "expression of RAGE, peptoid alone", "setting": "[2]; peptoid alone (no LPS), relative to the control", "result": "does not provoke response or upregulation"}, {"measurement": "LPS-induced production of IL-1β", "setting": "[3]", "result": "significantly attenuates"}, {"measurement": "Kd", "setting": "[4]", "result": 78.8, "unit": "nM"}]}]}
